Reference: US6815456B2, “Heterocyclyloxy-, -thioxy- and -aminobenzazole derivatives as 5-hydroxytryptamine-6 ligands” (Wyeth, priority 2001, dated 2004)
Counter-ions that a name gives are not always drawn.

Biological target: T1, human cloned 5-HT6 receptors (Homo sapiens, UniProt P50406)
T1 construct: expressed in transfected cells; host or cells: HeLa cells
Test: 5-HT6 binding affinity, [3H]-LSD displacement on membranes of Hela cells expressing human cloned 5-HT6 receptors
Settings: [3H]-LSD 3.0 nM, Hela cell membranes, 120 min at room temperature
Description: The affinity of test compounds for the serotonin 5-HT6 receptor is evaluated in the following manner. Cultured Hela cells expressing human cloned 5-HT6 receptors are harvested and centrifuged at low speed (1,000×g) for 10.0 min to remove the culture media. The harvested cells are suspended in half volume of fresh physiological phosphate buffered saline solution and recentrifuged at the same speed. This operation is repeated. The collected cells are then homogenized in ten volumes of 50 mM Tris.HCl (pH 7.4) and 0.5 mM EDTA. The homogenate is centrifuged at 40,000×g for 30.0 min and the precipitate is collected. The obtained pellet is resuspended in 10 volumes of Tris.HCl buffer and recentrifuged at the same speed. The final pellet is suspended in a small volume of Tris.HCl buffer and the tissue protein content is determined in aliquots of 10-25 μl volumes. Bovine Serum Albumin is used as the standard in the protein determination according to the method described in Lowry et al., J. Biol. Chem., 193:265 (1951). The volume of the suspended cell membranes is adjusted to give a tissue protein concentration of 1.0 mg/ml of suspension. The prepared membrane suspension (10 times concentrated) is aliquoted in 1.0 ml volumes and stored at −70° C. until used in subsequent binding experiments.
Binding experiments are performed in a 96 well microtiter plate format, in a total volume of 200 μl. […] The test compounds are added in 20.0 μl volume.
The reaction is allowed to proceed in the dark for 120 min at room temperature, at which time, the bound ligand-receptor complex is filtered off on a 96 well unifilter with a Packard Filtermate® 196 Harvester. The bound complex caught on the filter disk is allowed to air dry and the radioactivity is measured in a Packard TopCount® equipped with six photomultiplier detectors, after the addition of 40.0 μl Microscint®-20 scintillant to each shallow well. The unifilter plate is heat-sealed and counted in a PackardTopCount® with a tritium efficiency of 31.0%.
Binding in the presence of varying concentrations of test compound is expressed as a percentage of specific binding in the absence of test compound. The results are plotted as log % bound versus log concentration of test compound. […] A linear regression line of data points is plotted, from which the IC50 value is determined and the Ki value is determined based upon the following equation: […]
where L is the concentration of the radioactive ligand used and KD is the dissociation constant of the ligand for the receptor, both expressed in nM.

T1 sequence (P50406 whole entry): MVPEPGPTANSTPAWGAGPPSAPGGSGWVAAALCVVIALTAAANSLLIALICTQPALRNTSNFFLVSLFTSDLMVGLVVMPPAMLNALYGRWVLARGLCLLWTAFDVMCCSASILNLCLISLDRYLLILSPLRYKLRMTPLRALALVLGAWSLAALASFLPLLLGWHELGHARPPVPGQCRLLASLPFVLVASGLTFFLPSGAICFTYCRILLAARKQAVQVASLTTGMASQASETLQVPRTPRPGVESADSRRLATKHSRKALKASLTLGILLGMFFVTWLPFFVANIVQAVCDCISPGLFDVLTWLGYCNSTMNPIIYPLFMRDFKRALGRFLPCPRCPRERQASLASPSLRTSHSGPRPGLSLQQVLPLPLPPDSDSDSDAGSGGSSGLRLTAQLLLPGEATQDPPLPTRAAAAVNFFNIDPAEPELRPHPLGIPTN

Structure (SMILES) | Ki
O=S(=O)(c1ccccc1)n1ccc2c(OC3CCNC3)cccc21 (stereo not shown) [Example 3, 1-(Phenylsulfonyl)-4-(3-pyrrolidinyloxy)-1H-indole Hydrochloride] | 8 nM
Nc1ccc(S(=O)(=O)n2ccc3c(OC4CCNC4)cccc32)cc1 (stereo not shown) [Example 5, 4-{[4-(3-pyrrolidinyloxy)-1H-indol-1-yl]sulfonyl}aniline] | 5 nM
Nc1ccc(S(=O)(=O)n2ccc3c(OC4CCNCC4)cccc32)cc1 [Example 8, 4-{[4-(piperidin-4-yloxy)-1H-indol-1-yl]sulfonyl}aniline] | 3 nM
O=S(=O)(c1cccc2ccccc12)n1ncc2c(OC3CCNC3)cccc21 (stereo not shown) [Example 15, 1-(1-naphthylsulfonyl)-4-(3-pyrrolidinyloxy)-1H-indazole] | 3 nM
O=S(=O)(c1ccccc1Cl)n1ncc2c(OC3CCNC3)cccc21 (stereo not shown) [Example 16, 1-[(2-Chlorophenyl)sulfonyl]-4-(3-pyrrolidinyloxy)-1H-indazole] | 19 nM
COc1ccc(S(=O)(=O)n2ncc3c(OC4CCNC4)cccc32)cc1OC (stereo not shown) [Example 18] | 75 nM
CC(=O)Nc1ccc(S(=O)(=O)n2ncc3c(OC4CCNC4)cccc32)cc1 (stereo not shown) [Example 21] | 124 nM

The next lines start with the values.

Ki | Structure (SMILES)
25 nM | O=S(=O)(c1cccs1)n1ccc2c(OC3CCNC3)cccc21 (stereo not shown) [Example 4, 4-(3-pyrrolidinyloxy)1-(thien-2-ylsulfonyl)-1H-indole]
13 nM | O=S(=O)(c1cccc2ccccc12)n1ccc2c(OC3CCNC3)cccc21 (stereo not shown) [Example 6, 1-(1-naphthylsulfonyl)-4-(3-pyrrolidinyloxy)-1H-indole]
11 nM | Nc1ccc(S(=O)(=O)n2ccc3c(OC4CCCNC4)cccc32)cc1 (stereo not shown) [Example 9, 4-{[4-(piperidin-3-yloxy)-1H-indol-1-yl]sulfonyl}aniline]
19 nM | O=S(=O)(c1ccccc1)n1ncc2c(OC3CCNC3)cccc21 (stereo not shown) [Example 14, 1-(Phenylsulfonyl)-4-(pyrrolidin-3-yloxy)-1H-indazole, trifluoroacetic acid salt]
25 nM | O=S(=O)(c1ccccc1F)n1ncc2c(OC3CCNC3)cccc21 (stereo not shown) [Example 17, 1-[(2-fluorophenyl)sulfonyl]-4-(3-pyrrolidinyloxy)-1H-indazole]
9 nM | O=S(=O)(c1ccc(Cl)s1)n1ncc2c(OC3CCNC3)cccc21 (stereo not shown) [Example 19, 1-[(5-Chlorothien-2-yl)sulfonyl]-4-(3-pyrrolidinyloxy)-1H-indazole]
12 nM | CC(=O)Nc1ccc(S(=O)(=O)n2ncc3c(OC4CCNC4)cccc32)cc1Cl (stereo not shown) [Example 20, N-(2-Chloro-4-{[4-(3-pyrrolidinyloxy)-1H-indazol-1-yl]sulfonyl}phenyl)acetamide]
22 nM | O=S(=O)(c1cccc2cccnc12)n1ncc2c(OC3CCNC3)cccc21 (stereo not shown) [Example 22, 8-{[4-(3-pyrrolidinyloxy)-1H-indazol-1-yl]sulfonyl}quinoline]

Tested on: not given
Test: not given
Settings: not given

Structure (SMILES) | melting point
O=S(=O)(c1cccc2ccccc12)n1ccc2c(OC3CCNC3)cccc21 (stereo not shown) (as salt: hydrochloride) [Example 6, 1-(1-naphthylsulfonyl)-4-(3-pyrrolidinyloxy)-1H-indole] | 179 °C (dec.)
Cc1nn(C)c(Cl)c1S(=O)(=O)n1ccc2c(OC3CCNC3)cccc21 (stereo not shown) (as salt: hydrochloride) [Example 7, 1-[(5-Chloro-1,3-dimethyl-1H-pyrazol-4-yl)sulfonyl]-4-(3-pyrrolidinyloxy)-1H-indole] | 100 °C (dec.)
O=S(=O)(c1ccccc1Cl)n1ncc2c(OC3CCNC3)cccc21 (stereo not shown) (as salt: trifluoroacetic acid salt) [Example 16, 1-[(2-Chlorophenyl)sulfonyl]-4-(3-pyrrolidinyloxy)-1H-indazole] | 161 to 163 °C
O=S(=O)(c1ccccc1F)n1ncc2c(OC3CCNC3)cccc21 (stereo not shown) (as salt: trifluoroacetic acid salt) [Example 17, 1-[(2-fluorophenyl)sulfonyl]-4-(3-pyrrolidinyloxy)-1H-indazole] | 162 to 163 °C
O=S(=O)(c1ccc(Cl)s1)n1ncc2c(OC3CCNC3)cccc21 (stereo not shown) (as salt: trifluoroacetic acid salt) [Example 19, 1-[(5-Chlorothien-2-yl)sulfonyl]-4-(3-pyrrolidinyloxy)-1H-indazole] | 102 to 103 °C

Continued, values first:

melting point | Structure (SMILES)
117 to 119 °C | Nc1ccc(S(=O)(=O)n2ccc3c(OC4CCNCC4)cccc32)cc1 (as salt: hydrochloride) [Example 8, 4-{[4-(piperidin-4-yloxy)-1H-indol-1-yl]sulfonyl}aniline]
160 °C (dec.) | Nc1ccc(S(=O)(=O)n2ccc3c(OC4CCCNC4)cccc32)cc1 (stereo not shown) (as salt: hydrochloride) [Example 9, 4-{[4-(piperidin-3-yloxy)-1H-indol-1-yl]sulfonyl}aniline]
200 to 201 °C | O=S(=O)(c1cccc2ccccc12)n1ncc2c(OC3CCNC3)cccc21 (stereo not shown) (as salt: trifluoroacetic acid salt) [Example 15, 1-(1-naphthylsulfonyl)-4-(3-pyrrolidinyloxy)-1H-indazole]
68 to 72 °C | CC(=O)Nc1ccc(S(=O)(=O)n2ncc3c(OC4CCNC4)cccc32)cc1Cl (stereo not shown) (as salt: trifluoroacetic acid salt) [Example 20, N-(2-Chloro-4-{[4-(3-pyrrolidinyloxy)-1H-indazol-1-yl]sulfonyl}phenyl)acetamide]
79 °C | O=S(=O)(c1cccc2cccnc12)n1ncc2c(OC3CCNC3)cccc21 (stereo not shown) (as salt: trifluoroacetic acid salt) [Example 22, 8-{[4-(3-pyrrolidinyloxy)-1H-indazol-1-yl]sulfonyl}quinoline]
